# Experimental data as given in US20250282749A1 (Tango Therapeutics, Inc., priority 2022, published 2025).
# Assays:
# Type in all cases: cell-based
# [1] = system: HAP1 MTAP-deleted cell line; test: viability assay for the MTAP-deleted cell line; details: Homo sapiens
# [2] = system: PRMT5 (SDMA) in HAP1 MTAP-deleted cell line; test: SDMA in-cell western assay, HAP1 MTAP-deleted cell line; details: for IC50 / IC90: Homo sapiens, SDMA in-cell western, HAP1 MTAP-deleted (MTAP-null) cell line; for Hap1 MTAP intact/deleted ratio: ratio of SDMA in-cell western IC50 in HAP1 MTAP-intact to IC50 in HAP1 MTAP-deleted cell line
# From the text: (§1) HAP1 MTAP-intact is a cell line in which endogenous levels of MTAP are expressed, and HAP1 MTAP-deleted is an MTAP-null cell line.
# [3] = system: PRMT5 (SDMA) in HAP1 MTAP-intact cell line; test: SDMA in-cell western assay, HAP1 MTAP-intact cell line; details: Homo sapiens, HAP1 MTAP-intact cell line (endogenous MTAP), read-out: Hap 1 MTAP intact IC50
# From the text: as §1
IC50 [2] [nM],IC90 [2] [nM],IC50 [3] [nM],Compound,IC50 [1] [nM],Hap1 MTAP intact/deleted ratio [2]
5 to 50,> 125,> 50,COc1ncc(NC(=O)C(=O)N2C[C@@H](C)N(C(=O)C(C)(C)CN(C)C)C[C@@H]2c2ccccc2)cc1C(N)=O [Compound 69],100 to 1000,A (an IC50 ratio greater than or equal to 30 fold)
< 5,< 75,5 to 50,"C[C@@H]1CN(C(=O)C(=O)Nc2cnc(N)c3c2cnn3C)[C@@H](c2ccccc2)CN1C(=O)C1(C)CC1 [Compound 169, N-(7-Amino-1-methyl-pyrazolo[3,4-c]pyridin-4-yl)-2-oxo-2-[(2S,5R)-5-methyl-4-(1-methylcyclopropanecarbonyl)-2-phenyl-piperazin-1-yl]acetamide]",< 100,C (an IC50 ratio of less than 15 fold)
5 to 50,> 125,> 50,"CC(C)C(=O)N1C[C@H](c2cccc(N3CCN(C)CC3)c2)N(C(=O)C(=O)Nc2cncc3cn[nH]c23)C[C@H]1C [Compound 113, 2-((2S,5R)-4-isobutyryl-5-methyl-2-(3-(4-methylpiperazin-1-yl)phenyl)piperazin-1-yl)-2-oxo-N-(1H-pyrazolo[4,3-c]pyridin-7-yl)acetamide]",< 100,C (an IC50 ratio of less than 15 fold)
5 to 50,> 125,> 50,Cc1cc(NC(=O)C(=O)N2C[C@@H](C)N(C(=O)C(C)(C)CN3CCn4ccnc4C3)C[C@@H]2c2ccccc2)cnc1N [Compound 109],100 to 1000,C (an IC50 ratio of less than 15 fold)
5 to 50,75 to 125,> 50,"Cc1cc(NC(=O)C(=O)N2C[C@@H](C)N(C(=O)C3(C(F)(F)F)CC3)C[C@@H]2c2ccc(F)c(F)c2)cnc1N [Compound 38, N-(6-amino-5-methylpyridin-3-yl)-2-((2S,5R)-2-(3,4-difluorophenyl)-5-methyl-4-(1-(trifluoromethyl)cyclopropanecarbonyl)piperazin-1-yl)-2-oxoacetamide]",< 100,C (an IC50 ratio of less than 15 fold)
< 5,< 75,> 50,C[C@@H]1CN(C(=O)C(=O)Nc2cnc(N)c3cn[nH]c23)[C@@H](c2ccccc2)CO1 [Compound 107],100 to 1000,A (an IC50 ratio greater than or equal to 30 fold)
< 5,< 75,5 to 50,"Cc1cc(NC(=O)C(=O)N2C[C@@H](C)N(C(=O)C3(C(F)(F)F)CC3)C[C@@H]2c2ccc(N3CCN(C)CC3)cc2)cnc1N [Compound 77, N-(6-amino-5-methylpyridin-3-yl)-2-((2S,5R)-5-methyl-2-(4-(4-methylpiperazin-1-yl)phenyl)-4-(1-(trifluoromethyl)cyclopropanecarbonyl)piperazin-1-yl)-2-oxoacetamide]",< 100,B (an IC50 ratio greater than or equal to 15 fold but lower than 30 fold)
5 to 50,< 75,> 50,CC(=O)N1C[C@H](c2ccccc2)N(C(=O)C(=O)Nc2cnc(N)c3cn[nH]c23)C[C@H]1C [Compound 52],< 100,B (an IC50 ratio greater than or equal to 15 fold but lower than 30 fold)
5 to 50,75 to 125,> 50,C[C@@H]1CN(C(=O)C(=O)Nc2cnc(N)c(C3CC3)c2)[C@@H](c2ccc(F)c(F)c2)CN1C(=O)C1(C(F)(F)F)CC1 [Compound 22],< 100,B (an IC50 ratio greater than or equal to 15 fold but lower than 30 fold)
> 50,> 125,> 50,"C[C@H]1CN(C(=O)C(=O)Nc2cnc(N)c(C3CC3)c2)[C@H](c2ccc(F)cc2)CN1C(=O)OC(C)(C)C (stereo in doubt) [Compound 146, tert-butyl 4-(2-((6-amino-5-cyclopropylpyridin-3-yl)amino)-2-oxoacetyl)-5-(4-fluorophenyl)-2-methylpiperazine-1-carboxylate]",> 1000,C (an IC50 ratio of less than 15 fold)
< 5,< 75,< 5,"CCc1cc(NC(=O)C(=O)N2C[C@@H](C)N(C(=O)C(C)(C)C)C[C@@H]2c2cccc(N3CCN(C)CC3)c2)cnc1N [Compound 110, N-(6-amino-5-ethylpyridin-3-yl)-2-((2S,5R)-5-methyl-2-(3-(4-methylpiperazin-1-yl)phenyl)-4-pivaloylpiperazin-1-yl)-2-oxoacetamide]",< 100,C (an IC50 ratio of less than 15 fold)
< 5,< 75,5 to 50,CC(C)CN1C[C@H](c2ccccc2)N(C(=O)C(=O)Nc2cnc(N)c3cn[nH]c23)C[C@H]1C [Compound 16],< 100,A (an IC50 ratio greater than or equal to 30 fold)
5 to 50,> 125,> 50,"CC(C)C(=O)N1C[C@H](c2ccc(F)c(F)c2)N(C(=O)C(=O)Nc2cnc(N)c(C3CC3)c2)C[C@H]1C [Compound 75, N-(6-amino-5-cyclopropylpyridin-3-yl)-2-((5R)-2-(3,4-difluorophenyl)-4-isobutyryl-5-methylpiperazin-1-yl)-2-oxoacetamide]",< 100,C (an IC50 ratio of less than 15 fold)
5 to 50,> 125,> 50,CCC(=O)N1C[C@H](c2ccc(F)cc2)N(C(=O)C(=O)Nc2cnc(N)c(C3CC3)c2)C[C@H]1C [Compound 153],100 to 1000,B (an IC50 ratio greater than or equal to 15 fold but lower than 30 fold)
< 5,< 75,5 to 50,"CCc1cc(NC(=O)C(=O)N2C[C@@H](C)N(C(=O)C3(C)CC3)C[C@@H]2c2ccc(F)cc2)cnc1N [Compound 60, N-(6-amino-5-ethylpyridin-3-yl)-2-((2S,5R)-2-(4-fluorophenyl)-5-methyl-4-(1-methylcyclopropanecarbonyl)piperazin-1-yl)-2-oxoacetamide]",< 100,C (an IC50 ratio of less than 15 fold)
< 5,< 75,> 50,"C[C@@H]1CN(C(=O)C(=O)Nc2cnc(N)c(C3CC3)c2)[C@@H](c2ccc(F)c(F)c2)CN1C(=O)C1(C)CC1 [Compound 59, N-(6-amino-5-cyclopropylpyridin-3-yl)-2-((2S,5R)-2-(3,4-difluorophenyl)-5-methyl-4-(1-methylcyclopropanecarbonyl)piperazin-1-yl)-2-oxoacetamide]",< 100,B (an IC50 ratio greater than or equal to 15 fold but lower than 30 fold)
< 5,< 75,5 to 50,Cc1cc(NC(=O)C(=O)N2C[C@@H](C)N(C(=O)C3(C)CC3)C[C@@H]2c2ccc(Cl)cc2)cnc1N [Compound 65],< 100,C (an IC50 ratio of less than 15 fold)
5 to 50,75 to 125,> 50,"CCc1cc(NC(=O)C(=O)N2C[C@@H](C)N(C(=O)C3(C(F)(F)F)CC3)C[C@@H]2c2ccc(C)cc2)cnc1N [Compound 85, N-(6-amino-5-ethylpyridin-3-yl)-2-((2S,5R)-5-methyl-2-(p-tolyl)-4-(1-(trifluoromethyl)cyclopropanecarbonyl)piperazin-1-yl)-2-oxoacetamide]",< 100,B (an IC50 ratio greater than or equal to 15 fold but lower than 30 fold)
< 5,75 to 125,> 50,"Cc1cc(NC(=O)C(=O)N2C[C@@H](C)N(C(=O)C3(C(F)(F)F)CC3)C[C@@H]2c2ccc(Cl)cc2)cnc1N [Compound 131, N-(6-amino-5-methylpyridin-3-yl)-2-((5R)-2-(4-chlorophenyl)-5-methyl-4-(1-(trifluoromethyl)cyclopropanecarbonyl)piperazin-1-yl)-2-oxoacetamide]",100 to 1000,C (an IC50 ratio of less than 15 fold)
5 to 50,75 to 125,> 50,"C[C@@H]1CN(C(=O)C(=O)Nc2cncc3[nH]ncc23)[C@@H](c2ccccc2)CN1C(=O)C(C)(C)C [Compound 55, 2-((2S,5R)-5-methyl-2-phenyl-4-pivaloylpiperazin-1-yl)-2-oxo-N-(1H-pyrazolo[3,4-c]pyridin-4-yl)acetamide]",< 100,C (an IC50 ratio of less than 15 fold)
5 to 50,75 to 125,> 50,"Cc1cc(NC(=O)C(=O)N2C[C@@H](C)N(C(=O)C(C)C)C[C@@H]2c2ccc(F)c(Cl)c2)cnc1N [Compound 74, N-(6-amino-5-methylpyridin-3-yl)-2-((2S,5R)-2-(3-chloro-4-fluorophenyl)-4-isobutyryl-5-methylpiperazin-1-yl)-2-oxoacetamide]",100 to 1000,A (an IC50 ratio greater than or equal to 30 fold)
5 to 50,> 125,> 50,"COc1ncc(NC(=O)C(=O)N2C[C@@H](C)N(C(=O)C(C)C)C[C@@H]2c2cccc(N3CCN(C)CC3)c2)cc1C(N)=O [Compound 10, 5-(2-((2S,5R)-4-isobutyryl-5-methyl-2-(3-(4-methylpiperazin-1-yl)phenyl)piperazin-1-yl)-2-oxoacetamido)-2-methoxynicotinamide]",100 to 1000,C (an IC50 ratio of less than 15 fold)
